This note sets out measurements from article PMC5812785 (Nature chemical biology, 2018).

The target of assay [1] is TIR1 (Arabidopsis thaliana, UniProt Q38825+Q570C0). In kind it is binding.
The target of assay [2] is ccvTIR1 (TIR1^F79G) (Arabidopsis thaliana, UniProt Q38825+Q570C0, Q570C0:F79G). Type of assay: binding.
Sequence of ccvTIR1 (TIR1^F79G) (Q570C0 whole entry F79G, other chains not shown): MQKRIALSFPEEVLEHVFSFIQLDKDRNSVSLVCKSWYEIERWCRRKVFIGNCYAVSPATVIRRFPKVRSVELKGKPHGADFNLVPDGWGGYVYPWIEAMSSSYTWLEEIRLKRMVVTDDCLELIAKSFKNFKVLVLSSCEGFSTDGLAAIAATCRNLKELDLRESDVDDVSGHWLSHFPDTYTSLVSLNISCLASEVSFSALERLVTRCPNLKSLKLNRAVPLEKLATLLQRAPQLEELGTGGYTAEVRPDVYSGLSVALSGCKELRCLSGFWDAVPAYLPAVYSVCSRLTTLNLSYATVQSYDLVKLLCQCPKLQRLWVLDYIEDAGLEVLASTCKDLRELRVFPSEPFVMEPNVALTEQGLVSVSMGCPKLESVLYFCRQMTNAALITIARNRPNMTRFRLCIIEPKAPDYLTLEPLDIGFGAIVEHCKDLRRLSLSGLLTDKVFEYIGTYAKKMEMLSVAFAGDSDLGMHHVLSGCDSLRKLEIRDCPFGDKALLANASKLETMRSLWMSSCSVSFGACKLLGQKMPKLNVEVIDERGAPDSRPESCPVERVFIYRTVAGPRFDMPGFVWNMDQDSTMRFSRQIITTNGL

Sequence of TIR1 (Q570C0 whole entry, other chains not shown): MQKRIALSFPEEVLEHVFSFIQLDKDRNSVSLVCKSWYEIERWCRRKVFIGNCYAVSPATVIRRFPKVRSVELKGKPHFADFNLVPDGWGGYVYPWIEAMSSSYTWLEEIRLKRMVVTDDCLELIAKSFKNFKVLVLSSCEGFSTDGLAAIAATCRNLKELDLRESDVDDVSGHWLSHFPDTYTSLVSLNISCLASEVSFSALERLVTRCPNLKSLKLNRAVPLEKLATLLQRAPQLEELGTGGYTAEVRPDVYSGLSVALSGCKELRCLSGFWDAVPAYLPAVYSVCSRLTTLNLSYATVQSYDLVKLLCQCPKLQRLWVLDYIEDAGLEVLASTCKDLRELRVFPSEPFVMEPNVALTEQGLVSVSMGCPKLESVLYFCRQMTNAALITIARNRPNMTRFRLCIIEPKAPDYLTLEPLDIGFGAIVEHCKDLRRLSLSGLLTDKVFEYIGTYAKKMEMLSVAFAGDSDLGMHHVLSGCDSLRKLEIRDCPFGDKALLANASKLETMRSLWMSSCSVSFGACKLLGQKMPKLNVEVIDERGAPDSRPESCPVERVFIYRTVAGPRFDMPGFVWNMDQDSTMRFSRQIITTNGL

As to `O=C(O)Cc1c[nH]c2ccccc12` [IAA, indole-3-acetic acid], in assay [1], it took 11.5 ± 1.23 µM to reach a half-maximal effect (EC50).

As to `COc1cccc(-c2ccc3[nH]cc(CC(=O)O)c3c2)c1` [compound 1, 5-(3-methoxyphenyl)indole-3-acetic acid], the 50% effective concentration (EC50) in assay [2] was determined as 3.98 ± 0.6 µM.
